Like-named read-outs stand apart in the source and are kept apart here.
What was measured:
[1] = Particle size distribution by laser diffraction (Rodos/Helos); type: physicochemical; conditions: for median particle size (D50): starting materials
Method: Unless noted otherwise, particle size distribution provided herein is volume based particle size distribution was measured by a laser diffraction particle analyzer (Rodos/Helos system, Sympatec, NJ). Size statistics in terms of d10, d50 and d90 are reported, which are the values of the particle diameter at 10%, 50% and 90% respectively in the cumulative volumetric particle size distribution. In the Rodos/Helos system, the Rodos device works by venturi principle to disperse the powder, and the Helos unit uses laser diffraction principles of Fraunhofer Enhanced Evaluation (FREE) and Mie Extended Evaluation (MIEE) theories of light scattering to determine the particle size. Size statistics of d10, d50 and d90 at dispersion pressure of 0.1 bar are reported utilizing the FREE theory, the details for which can be found in Han et al. “Passivation of high surface energy sites of milled ibuprofen crystals via dry coating,” Journal of Pharmaceutical Sciences, Vol. 102(7), 1-15 (2013) and Jallo et al. “Improvement of flow and bulk density of pharmaceutical powders using surface modification,” International Journal of Pharmaceutics, 423 213-225 (2012).

[2] = Flow function coefficient (FFC), FT4 shear test at 3 kPa; type: physicochemical; conditions: Example 20, APIs alone
[3] = Conditioned bulk density, Freeman FT4 powder tester; type: physicochemical; conditions: Example 20, APIs alone
Method: Unless otherwise noted, bulk density and flowability, i.e., flow function coefficient (FFC), as provided herein is obtained using a Freeman FT4 powder tester (Freeman Technologies Ltd., Worcestershire, UK), where the bulk density and the flow function coefficient (FFC) were defined as the ratio of consolidation stress to the unconfined yield stress. The FFC was evaluated from a shear test under the consolidation pressure of 3 kPa. Detailed procedures for both may be found in Freeman et al., Measuring the flow properties of consolidated, conditioned and aerated powders—A comparative study using a powder rheometer and a rotational shear cell. […]
Bulk density was measured through a standard FT4 testing procedure that first conditions the powder to yield very repeatable results for the bulk density as discussed in the detailed procedures of Freeman, et al. mentioned above. […] The conditioned bulk density was measured by loading the powder samples into the 25 ml split vessel above the minimum fill level. After a conditioning cycle was performed the vessel was split to remove the top portion of the powder; the density was determined from the mass of the remaining powder in the 25 ml vessel.
In addition to measuring the porosity of the tablets, the porosity of a powder sample, and its complement, packing fraction can be also determined as follows. […]

[4] = from Huang et al., 2015; cited from earlier work
[5] = from Huang et al., 2015; cited from earlier work; remark: listed apart in the source
[6] = True (apparent particle) density by helium pycnometer; type: physicochemical; conditions: Table 1
Method: First, the apparent particle density, […]app, for each powder (also referred to as the gas pycnometric and true density of particles) was determined using a helium multipycnometer (Model MVP-6DC, Quantachrome instruments, FL, 33426, USA; repeated five time to get an average). After this is determined, the porosity of each tablet (ε) was calculated from the apparent particle density (ρapp) and the diameter (D), thickness (t) and weight (w) of the tablets using the following equation. All quantities are in SI units.

[7] = as-received commercial materials, Table 1

Row | SMILES | median particle size (D50) [1] | FFC [2] | bulk density [3] | Particle Size D10 [1, 7] | Particle Size D50 [1, 7] | Particle Size D90 [1, 7] | FFC [4] | bulk density [5] | True Density [6]
1 | CC(C)Cc1ccc(C(C)C(=O)O)cc1 (centres unmarked) [Ibuprofen 50] | 58 microns |  |  |  |  |  |  |  | 
2 | O=C1O[C@H]([C@@H](O)CO)C(O)=C1O [Ascorbic Acid] | 217 microns | 4.67 | 0.896 g/mL |  |  |  |  |  | 
3 | CC(=O)Nc1ccc(O)cc1 [Micronized APAP, micronized acetaminophen] |  |  | 0.206 g/mL | 2 μm | 10 μm | 37 μm | about 2 | about 0.2 g/mL | 1.29 g/mL
